Laboratory results as given in patent US20080234188A1, “Antimicrobial Peptides” (The Hospital for Sick Children, priority 2001, published 2008).
Values after ≈ are worked out from the molar mass of the structure shown. Where a SMILES comes first, the peptide text is derived from it.

Key:
[1] = test system: C498: E. coli, wild type strain; format: cell-based; settings: C498: , wild type strain
Text: (§1) The bacterial strains used were E. coli C498, E. coli C500, Escherichia coli UB1005 and its antibiotic supersusceptible derivative DC2 (22); a clinical isolate of Staphylococcus epidermidis (C621); coryneform bacterial strain Corynebacterium xerosis (C875); and E. coli ATCC 25922, Staphylococcus aureus ATCC 25923, Enterococcus faecalis ATCC 29212, Bacillus subtilis ATCC 6633 and Pseudomonas aeruginosa ATCC 27853, all from American Type Culture Collection.
(§2) Peptide antibacterial activity was assessed by the method of R. Hancock et al. (Wu & Hancock (1999), J. Biol. Chem., v. 274, pp. 29-35). Test strains of bacteria from Mueller Hinton agar (MHA) plates were inoculated into 5 ml Mueller Hinton Broth (MHB) in tubes and grown overnight at 37° C. on a shaker (180 rpm). Serial dilutions of test peptides (at 10 times the required test concentrations) were made in 0.01% acetic acid, 0.2% BSA, in polypropylene or coated glass tubes as follows: the test peptide was (a) dissolved in distilled water at 20 times the required maximum concentration (enough final volume for all tests to be performed on a given day); (b) diluted into an equal volume of 0.02% acetic acid, 0.4% BSA to give 10 times the required maximum concentration; (c) serial doubling dilutions were performed in 0.01% acetic acid, 0.2% BSA to provide serial dilutions of peptides at 10 times the required test concentrations, e.g., 640, 320, 160, . . . 2.5 μg/ml. (No deleterious effects of long-term storage of peptides in these media have been detected). Overnight bacterial cultures were diluted in MHB to give 2−7×10^5 colony forming units/ml. Bacterial suspension (100 μl) was dispensed in each well; controls without bacteria were maintained in parallel. To each well was added 11 μl of 10× test peptide and plates were incubated at 37° C. for 18-24 hours, and checked again at 40-48 hours. Plates were read visually and at 600 nm in a microplate reader (Molecular Devices).
(§3) were synthesized. The antibacterial activity of these peptides was determined against both Gram-positive bacteria ([…], Corynebacterium xerosis) and Gram-negative bacteria (various strains of E. coli). The results are shown in Table 2, along with the average hydrophobicity of each peptide, calculated as described herein.

[2] = test system: C500: E. coli, antibiotic strain; format: cell-based; settings: C500: , antibiotic strain
Text: as §1, §2, §3

[3] = test system: S. aureus ATCC25923; format: cell-based, Staphylococcus aureus
Text: as §1, §2
(§4) A further number of the peptides of the invention were tested for antimicrobial activity against a range of Gram-positive and Gram-negative bacteria by the assay described immediately before Example 1.

[4] = test system: Corynebacterium xerosis (C875); format: cell-based
Summary of the method: (§5)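 Broth microdilution in Mueller Hinton Broth, inoculum 2−7×10^5 CFU/ml. Peptides serially doubled in 0.01% acetic acid, 0.2% BSA and added at 10× final concentration. Incubation 37° C for 18-24 h, rechecked at 40-48 h; growth read visually and at 600 nm.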

[5] = test system: Staphylococcus epidermidis (C621); format: cell-based; settings: C621
Summary of the method: as §5

[6] = test system: Rabbit RBC; format: cell-based
Method: (§6) Erythrocytes from heparinized rabbit or human blood were washed three times with phosphate-buffered saline (PBS; 5 mM phosphate buffer, 0.14 M saline, pH 7.3), and centrifuged at 1000×g for 15 min at 4° C. The erythrocytes were diluted with PBS to 4% (v/v). Dilutions of the peptides in PBS were plated in 100 μl volumes in microtitre plates (Costar 3790, polypropylene) together with 100μl of the erythrocyte suspension. PBS was used as control and 100% lysis was determined in 0.1% Triton X-100. The plates were incubated at 37° C. for 1 h and then centrifuged at 1000×g for 5 min. 100 μl aliquots of the supernatant were transferred to microtitre plates (Nunc, polystyrene), and the release of hemoglobin was monitored by measurement of the absorbance at 540 nm in a microplate reader. The results are shown in Table 6, for peptide concentrations of […]. With only one or two exceptions, little or no hemolysis was seen.

[7] = test system: Human RBC; format: cell-based
Method: as §6

[8] = test system: E. coli ATCC25922; format: cell-based
Text: as §1, §2, §4

[9] = test system: E. coli UB1005; format: cell-based, Escherichia coli; settings: UB1005
Summary of the method: (§7)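 MIC values come from Mueller Hinton broth microdilution at 37° C (18-24 h, recheck 40-48 h), inoculum 2−7×10^5 CFU/ml. Endpoint taken from visual inspection plus OD600.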

[10] = test system: B. subtilis ATCC6633; format: cell-based, Bacillus subtilis
Text: as §1, §2, §4

[11] = test system: E. faecalis ATCC29212; format: cell-based, Enterococcus faecalis
Text: as §1, §2, §4

[12] = test system: P. aeruginosa ATCC27853; format: cell-based, Pseudomonas aeruginosa
Text: as §1, §2, §4

[13] = test system: E. coli DC2; test: Assay of antibacterial activity (MIC), E. coli DC2; format: cell-based, Escherichia coli; settings: Table 5A
Summary of the method: as §7

Row | Compound | MIC C498 [1] | MIC C500 [2] | MIC S. aureus ATCC25923 [3] | MIC C875 [4] | MIC C. xerosis C875 [4] | MIC S. epidermidis C621 [5] | Rabbit RBC (% lysis) 50 μM [6] | Rabbit RBC (% lysis) 200 μM [6] | Human RBC (% lysis) 50 μM [7] | Human RBC (% lysis) 200 μM [7] | MIC E. coli ATCC25922 [8] | MIC E. coli UB1005 [9] | MIC B. subtilis ATCC6633 [10] | MIC E. faecalis ATCC29212 [11] | MIC P. aeruginosa ATCC27853 [12] | MIC E. coli DC2 [13] | MIC C621 [5]
1 | C[C@H](NC(=O)[C@H](C)NC(=O)[C@H](Cc1ccccc1)NC(=O)[C@H](C)NC(=O)[C@H](C)NC(=O)[C@H](CCCNC(=N)N)NC(=O)[C@H](CCCNC(=N)N)NC(=O)[C@@H](N)CCCNC(=N)N)C(=O)N[C@@H](Cc1c[nH]c2ccccc12)C(=O)N[C@@H](C)C(=O)N[C@@H](C)C(=O)N[C@@H](Cc1ccccc1)C(=O)N[C@@H](C)C(=O)N[C@@H](C)C(=O)N[C@@H](CCCNC(=N)N)C(=O)N[C@@H](CCCNC(=N)N)C(=O)N[C@@H](CCCNC(=N)N)C(N)=O [Peptide F17R, RRRAAFAAWAAFAARRR-NH2] (H-RRRAAFAAWAAFAARRR-NH2; N-terminus assumed) | 2 µM (≈ 4.01 µg/mL) | 0.5 µM (≈ 1 µg/mL) | >32 µM | 1 µM (≈ 2 µg/mL) | 1 µM (≈ 2 µg/mL) | 4 µM (≈ 8.01 µg/mL) | 0 % lysis | 2 % lysis | 0 % lysis | 0 % lysis | 8 µM (≈ 16 µg/mL) | 2 µM (≈ 4.01 µg/mL) | 2 µM (≈ 4.01 µg/mL) | >32 µM | 16 µM (≈ 32.1 µg/mL) | 1 µM (≈ 2 µg/mL) | –
2 | C[C@H](NC(=O)[C@H](C)NC(=O)[C@H](C)NC(=O)[C@H](Cc1ccccc1)NC(=O)[C@H](C)NC(=O)[C@H](CCCCN)NC(=O)[C@@H](N)CCCCN)C(=O)N[C@@H](C)C(=O)N[C@@H](C)C(=O)N[C@@H](Cc1ccccc1)C(=O)N[C@@H](C)C(=O)N[C@@H](C)C(=O)N[C@@H](Cc1c[nH]c2ccccc12)C(=O)N[C@@H](C)C(=O)N[C@@H](C)C(=O)N[C@@H](Cc1ccccc1)C(=O)N[C@@H](C)C(=O)N[C@@H](CCCCN)C(=O)N[C@@H](CCCCN)C(=O)N[C@@H](CCCCN)C(=O)N[C@@H](CCCCN)C(N)=O [Peptide F21] (H-KKAFAAAAAFAAWAAFAKKKK-NH2; N-terminus assumed) | 8 µM (≈ 17.6 µg/mL) | 4 µM (≈ 8.78 µg/mL) | >32 µM | – | 0.5 µM (≈ 1.1 µg/mL) | 8 µM (≈ 17.6 µg/mL) | 1 % lysis | 3 % lysis | 0 % lysis | 0 % lysis | 32 µM (≈ 70.3 µg/mL) | 8 µM (≈ 17.6 µg/mL) | 2 µM (≈ 4.39 µg/mL) | >32 µM | >32 µM | 4 µM (≈ 8.78 µg/mL) | 8 to 16 µM
